# Experiments:
# Assay in all cases: relative viability (nuclei count vs DMSO), 5 days (fraction); higher = more cells survive
# CX-5461 + Pemetrexed = compound: Cc1cnc(CNC(=O)c2c(=O)c3ccc(N4CCCN(C)CC4)nc3n3c2sc2ccccc23)cn1 [CX-5461] + Nc1nc2[nH]cc(CCc3ccc(C(=O)N[C@@H](CCC(=O)O)C(=O)O)cc3)c2c(=O)[nH]1 [Pemetrexed] (partner 0.2 µM)
# Summary of the method: (§1)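 One day after seeding in 1536-well plates, lung cancer cell lines were dosed by pin tool. Dosing was either single-drug or a fixed anchor-drug dose plus five library-drug doses (not always all listed) in √10 steps. After 5 days, nuclei were stained in one fix-and-stain step and counted on 4× images, and relative viability is the nuclei count of treated wells over that of vehicle wells, given as the median of duplicate plates.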
# CX-5461 + Crizotinib = compound: Cc1cnc(CNC(=O)c2c(=O)c3ccc(N4CCCN(C)CC4)nc3n3c2sc2ccccc23)cn1 [CX-5461] + C[C@@H](Oc1cc(-c2cnn(C3CCNCC3)c2)cnc1N)c1c(Cl)ccc(F)c1Cl [Crizotinib] (partner 1 µM)
# Summary of the method: as §1
# IMD-0354 + OSI-027 = compound: O=C(Nc1cc(C(F)(F)F)cc(C(F)(F)F)c1)c1cc(Cl)ccc1O [IMD-0354] + COc1cccc2cc(-c3nc([C@H]4CC[C@H](C(=O)O)CC4)n4ncnc(N)c34)[nH]c12 [OSI-027] (partner 0.5 µM)
# Summary of the method: as §1
# CX-5461 + Luminespib = compound: Cc1cnc(CNC(=O)c2c(=O)c3ccc(N4CCCN(C)CC4)nc3n3c2sc2ccccc23)cn1 [CX-5461] + CCNC(=O)c1noc(-c2cc(C(C)C)c(O)cc2O)c1-c1ccc(CN2CCOCC2)cc1 [Luminespib] (partner 0.01 µM)
# Summary of the method: as §1
Cell Line,relative viability (CX-5461 + Pemetrexed; first compound 0.01 µM),relative viability (CX-5461 + Pemetrexed; first compound 0.03162 µM),relative viability (CX-5461 + Pemetrexed; first compound 0.1 µM),relative viability (CX-5461 + Pemetrexed; first compound 0.3162 µM),relative viability (CX-5461 + Pemetrexed; first compound 1 µM),relative viability (CX-5461 + Crizotinib; first compound 0.01 µM),relative viability (CX-5461 + Crizotinib; first compound 0.03162 µM),relative viability (CX-5461 + Crizotinib; first compound 0.1 µM),relative viability (CX-5461 + Crizotinib; first compound 0.3162 µM),relative viability (CX-5461 + Crizotinib; first compound 1 µM),relative viability (IMD-0354 + OSI-027; first compound 0.04 µM),relative viability (IMD-0354 + OSI-027; first compound 0.1265 µM),relative viability (IMD-0354 + OSI-027; first compound 0.4 µM),relative viability (IMD-0354 + OSI-027; first compound 1.265 µM),relative viability (IMD-0354 + OSI-027; first compound 4 µM),relative viability (CX-5461 + Luminespib; first compound 0.01 µM),relative viability (CX-5461 + Luminespib; first compound 0.03162 µM),relative viability (CX-5461 + Luminespib; first compound 0.1 µM),relative viability (CX-5461 + Luminespib; first compound 0.3162 µM),relative viability (CX-5461 + Luminespib; first compound 1 µM)
HCC-366,0.196,0.172,0.179,0.197,0.149,0.693,0.82,0.573,0.252,0.48,0.909,0.929,0.496,0.209,0.0404,–,–,–,–,–
HCC-827,0.292,0.253,0.268,0.225,0.331,0.876,0.877,0.905,0.866,0.846,0.67,0.693,0.621,0.225,0.196,0.875,0.69,0.921,0.588,0.791
HOP-62,0.236,0.384,0.297,0.28,0.321,0.996,0.901,0.858,0.624,1.09,0.954,0.782,0.516,0.295,0.204,0.849,0.921,0.905,0.973,0.917
IA-LM,–,–,–,–,–,0.968,0.813,0.821,0.836,0.33,–,–,–,–,–,–,–,–,–,–
LC-2-ad,0.238,0.27,0.244,0.296,0.279,0.491,0.522,0.363,0.286,0.454,0.827,0.852,0.441,0.298,0.193,0.981,1.04,0.869,0.925,0.424
LCLC-97TM1,0.178,0.193,0.196,0.103,0.155,0.436,0.422,0.286,–,0.436,0.519,0.489,0.265,0.186,0.148,0.865,0.84,0.889,–,0.703
LCLC-103H,0.426,0.482,0.46,0.401,0.4,1.12,1.08,1.13,1.04,1.08,0.592,0.471,0.375,0.295,0.196,1.03,1.08,1.01,1.14,0.975
LK-2,0.213,0.258,0.299,–,0.236,–,0.188,0.214,–,0.239,0.193,0.198,0.235,0.19,0.215,0.173,0.214,0.199,–,0.212
LOU-NH91,0.35,0.377,0.409,0.354,0.344,0.756,0.784,0.745,0.728,0.759,0.77,0.692,0.335,0.27,0.198,0.411,0.354,0.303,–,0.323
LU99A,0.197,0.175,0.159,0.188,0.179,0.571,0.552,0.495,0.344,0.453,0.351,0.286,0.246,0.259,0.196,0.187,0.218,0.235,0.241,0.242
LXF-289,0.867,0.933,0.847,–,0.574,0.805,0.882,0.823,0.399,0.725,0.871,0.772,0.492,0.34,0.115,0.627,0.798,0.823,0.732,0.662
NCI-H23,0.524,0.862,0.7,0.71,0.508,0.609,0.584,0.55,0.437,0.48,0.538,0.631,0.341,0.195,0.19,0.212,0.234,0.197,0.234,0.214
NCI-H522,1.15,1.1,0.832,–,0.918,–,–,–,–,–,0.723,0.683,0.688,0.385,0.343,1.49,1.22,1.98,1.05,1.08
NCI-H727,–,–,–,–,–,0.695,0.835,0.692,0.767,0.703,0.93,0.585,0.415,0.395,0.312,0.664,0.439,0.384,0.58,0.321
NCI-H1299,–,–,–,–,–,0.961,0.99,0.991,0.959,0.863,–,–,–,–,–,–,–,–,–,–
NCI-H1395,0.835,0.846,0.816,0.437,0.488,–,–,–,–,–,0.69,0.755,0.651,0.43,0.256,0.669,0.596,0.677,0.667,0.644
NCI-H1648,0.631,0.847,0.686,0.832,0.494,–,–,–,–,–,–,0.27,0.287,0.244,0.278,–,–,–,–,–
NCI-H1703,–,–,–,–,–,0.783,0.852,0.77,0.663,0.343,–,–,–,–,–,–,–,–,–,–
NCI-H1793,1.17,1.21,0.92,0.706,0.802,–,–,–,–,–,0.319,0.293,0.161,0.165,0.131,0.199,0.249,0.131,–,0.194
NCI-H2342,0.764,0.815,0.751,0.744,0.745,–,–,–,–,–,0.723,0.659,0.499,0.472,0.482,0.778,0.653,0.657,0.761,0.693
SW 900,0.437,0.52,–,0.521,0.441,–,–,–,–,–,0.64,0.674,0.308,0.263,0.248,0.171,0.162,0.19,0.18,0.176
